The values below come from patent publication US20220304958A1, “SMALL MOLECULE INHIBITORS OF A PROTEIN COMPLEX” (THE REGENTS OF THE UNIVERSITY OF CALIFORNIA, priority 2019, published 2022).

Molecules are shown by their SMILES. Peptide text beside a SMILES is read from it.

The first assay relates to PARD3 binding to HEG1. As to the kind of experiment: PARD3 pulldown assay with HEG1 matrix. On the set-up: species or system human (HUVEC lysates). Particulars: 35 μM compound, HUVEC lysates, HEG1 WT matrix. How it is done: PARD3 pulldown assay. Neutravidin agarose beads (Thermo Fisher) matrix with wild-type HEG1 cytoplasmic tail (1274-1381) and ΔYF (1274-1379) were previously described (5, 26). HUVEC were collected in cold lysis buffer (50 mM Tris-HCl, pH 7.4, 100 mM NaCl, 5 mM MgCl2, 0.5% NP-40) plus protease inhibitor cocktail (Roche). A total of 20 μl of HEG1 matrix was added to 600 μg of clarified lysates and incubated at 4° C. overnight while rotating. All conditions contained either vehicle DMSO, 35 μM HKi2 or 35 μM 2-hydroxy-1-naphthoic acid. After three washes with cold lysis buffer, beads were mixed with sample buffer and proteins were separated by SDS-PAGE. Bound PARD3 was detected by using polyclonal Rabbit anti-PARD3 (Millipore, 07-330) antibody.
Regarding `O=C(O)c1c(O)ccc2ccccc12` [Compound 9, 2-hydroxy-1-naphthoic acid], the “PARD3 binding to HEG1” value is given as “no effects”.

A further assay concerns HUVEC. Kind of assay: Genome-wide RNA sequencing of HUVEC. The class given is cell-based, human. As to conditions: same conditions (75 μM, 24 h). How it is done:
Cell culture. hCMEC/D3 cells at passages 30-37 were grown to confluence on collagen-coated plates and cultured using in EGM-2 MV medium and supplemented with complements obtained from the manufacturer (Lonza) as previously reported (31). HUVEC (Lonza) at passages 4-7 were grown to confluence on gelatin-coated plates and maintained using complete EGM-2 media (Lonza). HKi2, 10 mM in DMSO, was maintained at room temperature for 30 min rotating before use. Cells were then treated with HKi2 at the concentrations and times indicated for each experiment. Vehicle cells were treated with the same volume of DMSO as used with HKi2. Cells were maintained at 37° C. in 95% air and 5% CO2. Genome-wide RNA sequencing. The quantity (ND-1000 spectrophotometer; NanoDrop Technologies) and quality (Bioanalyzer; Agilent) of total RNA were analyzed. Only RNA with a RNA integrity number (RIN) greater than 8 RNA was used for library preparation. Libraries were generated using Illumina's TruSeq Stranded mRNA Sample Prep kit using 400 ng RNA. RNA libraries were multiplexed and sequenced with 100-bp […] single-end reads (SR100) to a depth of 30 million reads per sample on an Illumina HiSeq2500. Fastq files from RNA-seq experiments were mapped to the human genome (GRCh primary assembly release 96) using Hisat2 with default parameters. All bioinformatics analyses were conducted in R using the […] package RNAseq workflows. Differential gene expression analysis was conducted with EdgeR.
Take `O=C(O)c1c(O)ccc2ccccc12` [Compound 9, 2-hydroxy-1-naphthoic acid]: the “effects on gene expression by RNA-Seq” value is listed as “no significant effects”.

`Oc1ccc2ccccc2c1` [Compound 10, naphthalene-2-ol]: the “effects on gene expression by RNA-Seq” value is listed as “no significant effects”.

In a further assay the target is T1, HEG1-KRIT1 interaction (Homo sapiens, UniProt O00522).
T1 construct: His6-EGFP-KRIT1 (WT) FERM domain (417-736) and KRIT1 (L717,721A) mutant were cloned into pETM-11; His6 (N); made in house; host or cells: E. coli BL21 Star (DE3)
T1 sequence (O00522 417-736): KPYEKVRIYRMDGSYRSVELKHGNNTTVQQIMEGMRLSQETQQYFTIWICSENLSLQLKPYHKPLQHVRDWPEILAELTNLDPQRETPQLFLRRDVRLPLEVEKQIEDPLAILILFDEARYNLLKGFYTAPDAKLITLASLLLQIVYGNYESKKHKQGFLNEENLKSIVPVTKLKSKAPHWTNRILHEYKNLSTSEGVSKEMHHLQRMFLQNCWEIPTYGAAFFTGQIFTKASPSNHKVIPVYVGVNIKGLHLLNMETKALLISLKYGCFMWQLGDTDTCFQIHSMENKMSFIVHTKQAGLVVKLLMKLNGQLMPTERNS
As to the kind of experiment: Flow cytometry assay for the HEG1-KRIT1 FERM domain interaction (competition binding on HEG1 matrix beads). As to conditions: Table 2; flow cytometry-screening assay; NI = no inhibition detected up to 500 μM. How it is done:
Bead Coupling. SPHERO Neutravidin Polystyrene Particles, […] (Spherotech) were washed twice with wash buffer (20 mM Tris, 150 mM NaCl. pH 7.4 containing 0.01% NP-40, and 1 mM EDTA). Prior to incubation with biotin-tagged HEG 1 cytoplasmic tail protein, an appropriate volume of bead slurry was passivated to inhibit non-specific binding by incubation for 30 minutes at room temperature in reaction buffer containing 0.1% BSA (20 mM Tris, 150 mM NaCl, pH 7.4 0.01% NP-40, 1 mM EDTA, 1 mM DTT, and 0.1% BSA). Passivated beads were collected by centrifugation, resuspended to 3,600 particles/μl in reaction buffer and biotinylated HEG1 tail was added to a final concentration of 150 nM and incubated overnight on a rotator at 4° C. The beads were washed three times by centrifugation with ice-cold reaction buffer to remove unbound HEG1 peptide. Beads were diluted such that a final concentration of 2000 beads/μL were available for addition to assay plates.
Flow cytometry assay. A final volume of 100 μl containing 140 nM EGFP-KRIT1 FERM domain, with 10% DMSO or 10% compounds in DMSO, was incubated for 15 minutes at room temperature on a rotator. 100 μl of beads were added to the mixture for a final volume of 200 μl at 1,000 particles/μl with 70 nM EGFP-KRIT1 and incubated for 15 minutes at room temperature on a rotator. The control beads were: without KRIT1 (minimum signal); with KRIT1 (maximum signal); and with KRIT1 plus 2 μM HEG1 7-mer (positive blocking control). The EGFP fluorescence was measured using a BD Accuri flow cytometer. For screening purposes, the final volume of the reaction was scaled down to 10 μl and samples were processed as previously described (27). For FIGS. 1D-1F, 2B, and 3E, a representative experiment is shown of at the least 3 independent repeats.
Assay plate assembly. Plate assays were performed in 384-well microtiter plates (Greiner Bio-one, #784101). Reaction buffer. HEG1-coupled beads, and EGFP-KRIT-FERM constructs were added using a MultiFlo™ Microplate Dispenser (BioTek Instruments, Inc.). Compounds were added to single-point assay plates pre-loaded with reaction buffer using a Biomek^NX liquid handler (BeckmanCoulter) equipped with a […] pintool (V & P Scientific, Inc.). Compound libraries were dispensed to a final concentration of 10 μM. An equal volume (10 nL) of DMSO was added to the vehicle control wells. Following the addition of library compounds, 5 μL of assay buffer was added and the plates were mixed before addition of 5 μL of the protein-coupled bead mixtures; Plates were protected from light and incubated on a rotator for 15 minutes at room temperature. Binding of EGFP-KRIT to HEG1 coupled beads was evaluated using an Accuri C6 flow cytometer.
Data Acquisition. Assay plates were sampled using the HyperCyt™ high throughput flow cytometry platform (Intellicyt; Albuquerque, N. Mex.). During sampling, the probe moves from well to well and samples 1-2 μL from each well pausing 0.4 sec in the air before sampling the next well. The resulting sample stream consisting of 384 separated samples is delivered to an Accuri C6 flow cytometer (BD Biosciences; San Jose, Calif.). Plate data are acquired as time-resolved files that are parsed by software-based well identification algorithms and merged with compound library files. Plate performance was validated using the Z-prime calculation (28).
Compounds that satisfied hit selection criteria in the primary screen were cherry-picked from compound storage plates and tested to confirm activity and determine potency. Dose response data points were fitted by Prism software (GraphPad Software Inc., San Diego, Calif.) using nonlinear least-squares regression in a sigmoidal dose-response model with variable slope, also known as the 4-parameter logistic equation.
For `COC(=O)c1ccccc1NC(=O)c1c(O)ccc2ccccc12` [BL-0589, methyl 2-(2-hydroxy-1-naphthamido)benzoate], the “IC50 (μM)” value is “precipitation”.

`Oc1ccc2ccccc2c1/C=N/c1ncn[nH]1` [BL-0550, (E)-1-(((1H-1,2,4-triazol-5-yl)imino)methy)naphthalen-2-ol]: the “IC50 (μM)” value is “precipitation”.

Staying with this assay, now noted: Table 2; flow cytometry-screening assay; NI = no inhibition detected up to 500 μM; read-out: IC50.
For orientation: IC50 means the concentration needed to halve the response being measured. Consider `O=C(O)c1c(O)ccc2ccccc12` [Compound 9, 2-hydroxy-1-naphthoic acid], for which the IC50 was greater than 500 µM.

For `OC1(c2cccc3ccccc23)COC1` [BL-0695, 3-(naphthalen-1-yl)oxetan-3-ol], the 50% inhibitory concentration (IC50) was greater than 500 µM.

In the case of `O=Cc1c(O)ccc2cc(N3CCCCC3)ccc12` [BL-0736, 2-Hydroxy-6-(piperidin-1-yl)-1-naphthaldehyde], the IC50 worked out at 28.8 µM.

As for `O=C(O)c1ccccc1/C=C/c1c(O)ccc2ccccc12` [BL-0605, (E)-2-(2-(2-hydroxynaphthalen-1-yl)vinyl)benzoic acid], the IC50 was greater than 500 µM.

Take `O=Cc1c(O)ccc2cc(N3CCC3=O)ccc12` [BL-0738, 2-Hydroxy-6-(2-oxoazetidin-1-yl)-1-naphthaldehyde]: the IC50 was 30.3 µM.

In the case of `ON=Cc1c(O)ccc2ccccc12` [BL-0591, 2-hydroxy-l-naphthaldehyde oxime], the half-inhibitory concentration (IC50) is greater than 500 µM.

With `C#Cc1ccc2c(C=O)c(O)ccc2c1` [BL-0742, 6-Ethynyl-2-hydroxy-1-naphthaldehyde], the IC50 was found to be 4 µM.

Take `CN(C)c1ccc2c(C=O)c(O)ccc2c1` [BL-0737, 6-(Dimethylamino)-2-hydroxy-1-naphthaldehyde]: the IC50 was determined as 2.6 µM.

For the molecule `O=Cc1nccc2ccccc12` [BL-0607, Isoquinoline-1-carbaldehyde], the concentration for half-maximal inhibition (IC50) is greater than 500 µM.

For `Oc1ccc2ccccc2c1` [Compound 10, naphthalene-2-ol], the IC50 was greater than 500 µM.

For `O=C(O)c1cccc(/N=C/c2c(O)ccc3ccccc23)c1` [BL-0558, (E)-3-(((2-hydroxynaphthalen-1-yl)methylene)amino)benzoic acid], the IC50 turned out to be 3.2 µM.

Regarding `N#Cc1ccc2c(C=O)c(O)ccc2c1` [BL-0788, 5-Formyl-6-hydroxy-2-naphthonitrile], the half-inhibitory concentration (IC50) came out at 3.6 µM.

In the case of `CCOC(=O)/C=C/c1ccc2c(C=O)c(O)ccc2c1` [BL-0744, Ethyl (E)-3-(5-formyl-6-hydroxynaphthalen-2-yl)acrylate], the IC50 was 79.3 µM.

As to `O=C(O)c1ccccc1C#Cc1c(O)ccc2ccccc12` [BL-0604, 2-((2-hydroxynaphthalen-1-yl)ethynyl)benzoic acid], the concentration for half-maximal inhibition (IC50) was greater than 500 µM.

`CC(O)c1ccc2c(C=O)c(O)ccc2c1` (stereo not drawn) [BL-0745, 2-Hydroxy-6-(1-hydroxyethyl)-1-naphthaldehyde]: the IC50 came out at 31.9 µM.

Consider `C[S+]([O-])c1c(O)ccc2ccccc12` (stereo not drawn) [BL-705, 1-(Methylsulfinyl)naphthalen-2-ol], for which the 50% inhibitory concentration (IC50) is greater than 500 µM.

In the case of `O=Cc1c(O)ccc2cccc(O)c12` [BL-0693, 2,8-dihydroxy-1-naphthaldehyde], the IC50 came out at 45 µM.

For `C=CCc1ccc2c(C=O)c(O)ccc2c1` [BL-0739, 6-Allyl-2-hydroxy-1-naphthaldehyde], the IC50 was determined as 1.1 µM.

On to `O=Cc1c(O)ccc2cc(-c3ccccc3)ccc12` [BL-0818, 2-Hydraxy-6-phenyl-1-naphthaldehyde], for which the half-maximal inhibitory concentration (IC50) worked out at 3 µM.

For the molecule `c1ccc2c(c1)ccc1oncc12` [BL-0593, naphtho[1,2-d]isoxazole], the IC50 is greater than 500 µM.

As to `O=Cc1c(O)ccc2cc(-c3cccs3)ccc12` [BL-0819, 2-Hydroxy-6-(thiophen-2-yl)-1-naphthaldehyde], the 50% inhibitory concentration (IC50) was 1.2 µM.

In the case of `CS(=O)(=O)c1c(O)ccc2ccccc12` [BL-704, 1-(Methylsulfonyl)naphthalen-2-ol], the concentration for half-maximal inhibition (IC50) was greater than 500 µM.

The same assay, now with this note: blocking of GFP-KRIT1 FERM domain binding to HEG1 matrix beads; read-out: IC50.
For the molecule `N=C(N)NCCC[C@H](NC(=O)[C@H](CCCNC(=N)N)NC(=O)[C@H](CCCNC(=N)N)NC(=O)[C@@H](N)CO)C(=O)N[C@@H](CC(=O)O)C(=O)N[C@@H](Cc1ccc(O)cc1)C(=O)N[C@@H](Cc1ccccc1)C(=O)O` [HEG1 C-terminus 7-mer peptide, reference compound] (H-SRRRDYF-OH; N-terminus and C-terminus assumed), the IC50 was 0.41 µM.

The same assay, now with this note: inhibition of the HEG1-KRIT1 interaction, flow cytometry assay.
`O=Cc1nccc2ccccc12` [BL-0607, Isoquinoline-1-carbaldehyde]: the IC50 result is reported as “no inhibition”.

The subject of a further assay is KLF4 and KLF2 mRNA. As to the kind of experiment: KLF4 and KLF2 mRNA expression in hCMEC/D3 cells by qPCR. The class given is cell-based, human. Particulars: hCMEC/D3, 25 μM, 4 hours. How it is done: Cell culture. hCMEC/D3 cells at passages 30-37 were grown to confluence on collagen-coated plates and cultured using in EGM-2 MV medium and supplemented with complements obtained from the manufacturer (Lonza) as previously reported (31). HUVEC (Lonza) at passages 4-7 were grown to confluence on gelatin-coated plates and maintained using complete EGM-2 media (Lonza). HKi2, 10 mM in DMSO, was maintained at room temperature for 30 min rotating before use. Cells were then treated with HKi2 at the concentrations and times indicated for each experiment. Vehicle cells were treated with the same volume of DMSO as used with HKi2. Cells were maintained at 37° C. in 95% air and 5% CO2. RNA extraction and qRT-PCR. HUVECs total RNA were isolated using MagMAXTM-96 for Microarrays Total RNA Isolation Kit, according to the manufacturer's protocol (Thermo Fisher Scientific Cat #AM1839). qPCR analysis, single-stranded cDNA was produced from 10 ng RNA isolated from HUVECs using PrimeScriptTM RT Master Mix according to the manufacturer's protocol (Takara Cat. #R[…]). The levels of genes were analyzed using iTaqTM Universal SYBR Green (BioRad Cat #1725122) and thermal cycler (CFX96 Real-Time System; Bio-Rad) according to the manufacturer's protocol. Actin mRNA levels was used as internal control, and the 2^-ΔΔCT method was used for data analysis.
For orientation: In qPCR the cycle at which signal appears reflects the starting amount.
Turning to `O=C(O)c1c(O)ccc2ccccc12` [Compound 9, 2-hydroxy-1-naphthoic acid], the “KLF4 or KLF2 elevation” value is “did not elevate”.
